From ChEMBL document CHEMBL4616652, “Bioactive Polyhydroxanthones from Penicillium purpurogenum” (J Nat Prod, 2020)
Values after ≈ are worked out from the molar mass of the structure shown. Counter-ions that a name gives are not always drawn.

Columns and labels:
[1] = system: Shigella dysenteriae; assay: Antimicrobial activity against Shigella dysenteriae incubated for 7 hrs by alamar Blue assay; assay type: functional
[2] = system: HepG2; assay: Cytotoxicity against human HepG2 cells after 72 hrs by MTT assay; assay type: functional, cell-based; details: HepG2, 72 h
[3] = system: HeLa; assay: Cytotoxicity against human HeLa cells after 72 hrs by MTT assay; assay type: functional, cell-based
[4] = system: A549; assay: Cytotoxicity against human A549 cells after 72 hrs by MTT assay; assay type: functional, cell-based; details: A549, 72 h
[5] = system: Staphylococcus aureus; assay: Antimicrobial activity against methicillin-resistant Staphylococcus aureus incubated for 7 hrs by alamar Blue assay; assay type: functional
[6] = system: Staphylococcus aureus; assay: Antimicrobial activity against Staphylococcus aureus incubated for 7 hrs by alamar Blue assay; assay type: functional
[7] = system: Vero; assay: Cytotoxicity against African green monkey Vero cells incubated for 72 hrs by MTT assay; assay type: cell-based; details: Chlorocebus sabaeus

SMILES | MIC [1] [µg/mL] | IC50 [2] [µM] | IC50 [3] [µM] | IC50 [4] [µM] | MIC [5] [µg/mL] | MIC [6] [µg/mL] | IC50 [7] [µM]
C[C@@]12O[C@@H]1C(O)=C1C(=O)c3c(ccc(-c4ccc5c(c4O)C(=O)C4=C(O)[C@H]6O[C@@]6(C)[C@H](OC(=O)CCC(=O)O)[C@]4(C)O5)c3O)O[C@@]1(C)[C@H]2OC(=O)CCC(=O)O | 100 (≈ 128 µM) | > 50 | > 50 | > 50 | 100 (≈ 128 µM) | 12.5 (≈ 16.1 µM) | > 50
NC[C@H]1O[C@H](O[C@H]2[C@H](O)[C@@H](O[C@H]3O[C@H](CO)[C@@H](O)[C@H](N)[C@H]3O)[C@H](N)C[C@@H]2N)[C@H](O)[C@@H](O)[C@@H]1O [KANAMYCIN] | 0.2 (≈ 0.413 µM) |  |  |  | > 100 | 0.8 (≈ 1.65 µM) | 
CN[C@H](CC(C)C)C(=O)N[C@H]1C(=O)N[C@@H](CC(N)=O)C(=O)N[C@H]2C(=O)N[C@H]3C(=O)N[C@H](C(=O)N[C@H](C(=O)O)c4cc(O)cc(O)c4-c4cc3ccc4O)[C@H](O)c3ccc(c(Cl)c3)Oc3cc2cc(c3O[C@@H]2O[C@H](CO)[C@@H](O)[C@H](O)[C@H]2O[C@H]2C[C@](C)(N)[C@H](O)[C@H](C)O2)Oc2ccc(cc2Cl)[C@H]1O [VANCOMYCIN] |  |  |  |  | 0.8 (≈ 0.552 µM) |  | 
C[C@@]12O[C@]3(C(=O)c4c(O)cccc4O[C@@]3(C)[C@H]1O)[C@@H](O)[C@H]2O | > 100 | > 50 | > 50 | > 50 |  | > 100 | > 50
CC1=C[C@H](O)[C@]2(O)C(=O)c3c(O)cccc3O[C@@]2(C)[C@H]1OC(=O)CCC(=O)O | > 100 | > 50 | > 50 | > 50 |  | > 100 | > 50
COC(=O)CCC(=O)O[C@H]1[C@]2(C)O[C@@H]2C(O)=C2C(=O)c3c(ccc(-c4ccc5c(c4O)C(=O)C4=C(O)[C@H]6O[C@@]6(C)[C@H](OC(=O)CCC(=O)OC)[C@]4(C)O5)c3O)O[C@]21C | 6.3 (≈ 7.81 µM) | 0.5 | 0.3 | 0.6 | 0.4 (≈ 0.496 µM) | 0.4 (≈ 0.496 µM) | > 50
COC(=O)CCC(=O)O[C@H]1[C@]2(C)O[C@@H]2C(O)=C2C(=O)c3c(ccc(-c4ccc5c(c4O)C(=O)C4=C(O)[C@H]6O[C@@]6(C)[C@H](OC(=O)CCC(=O)O)[C@]4(C)O5)c3O)O[C@]21C | 6.3 (≈ 7.95 µM) | 4.8 | 7.6 | 32 | 12.5 (≈ 15.8 µM) | 3.1 (≈ 3.91 µM) | > 50
CC1=C[C@H](O)[C@]2(O)C(=O)c3c(O)cccc3O[C@@]2(C)[C@H]1O | > 100 | > 50 | > 50 | > 50 |  | > 100 | > 50
COc1cccc2c1C(=O)c1c(O)c3c(c(O)c1C2=O)C[C@@](O)(C(=O)CO)C[C@@H]3O[C@H]1C[C@H](N)[C@H](O)[C@H](C)O1 [DOXORUBICIN HYDROCHLORIDE] |  |  | 0.5 | 0.7 |  |  | 
C[C@@H]1C[C@@H](O)[C@@]2(O)C(=O)c3c(O)cccc3O[C@]2(C)[C@H]1O | > 100 | > 50 | > 50 | > 50 |  | > 100 | > 50
C[C@@]12O[C@@H]1[C@H](O)[C@]1(O)C(=O)c3c(O)cccc3O[C@@]1(C)[C@H]2O | > 100 | > 50 | > 50 | > 50 |  | > 100 | > 50
